Measured values: publication PMC4728560 (Scientific Reports, 2016)

Columns and labels:
Bcl-xL = experiment: In cellulo BRET between Luciferase-fused TCTP and YFP-fused Bcl-xL; type: cell-based; details: MCF-7 cells; donor Luciferase-fused TCTP, acceptor YFP-fused Bcl-xL
Excerpt: See Supplementary Information for full details.
Twenty-four hours later, cells
Protein expression and purification

cBidmt1+Bax = experiment: Control liposome permeabilization without Bcl-xL, cBidmt1+Bax; type: biochemical; details: 320 nM pH9 treated TCTP, 100 nM Bax, 20 nM cBidmt1
Method: (A–E) in vitro reconstitution assay on liposome permeabilization. […] The treated Bcl-xL was then added to reactions containing ANTS-DPX liposomes, 100 nM Bax and 20 nM of either cBid (A,B) or cBidmt1(C,D) at pH 7. Liposome permeabilization was quantified by fluorescence after 5h incubation at 37 °C where 100% release was defined as the fluorescence change due to lipid solubilization with 1% Triton X-100. […] Error bars, std. dev. n = 3. To compare between the TCTP treated groups and the Control group statistically, two-way ANOVA test was performed for (A–D) and one-way ANOVA test was performed for (E). […] Colored asterisks above each data point indicate the statistical significance (*p < 0.05; **p < 0.01, no asterisks if p ≥ 0.05). A complete statistical analysis is provided in Supplementary Table 2–4. (F) Permeabilization assays of mitochondrial membrane by tBid and Bax assessing cytochrome c release. […] Cyto c extra-mito: in the supernatant, analysed by Western blot. […]
(§1) Figure 10 A,B) or cBid mt1 (Supplementary Figure 10 C,D) at pH 7 to quantify the activity of Bcl-xL inhibition of liposome permeablization. […]
the Control group (No TCTP) were analyzed through Dunnett's multiple comparisons test at each sample condition (Bcl-XL concentration) for statistical significance. […]
Statistical significance was analyzed through Dunnett's multiple comparisons test. […]

[1] = tested on: Bcl-xL inhibition of cBid/Bax; experiment: In vitro reconstitution liposome permeabilization, cBid/Bax with Bcl-xL; type: biochemical; details: ANTS/DPX liposomes, 100 nM Bax, 20 nM cBid, pre-incubation pH 9, 45 min, 37 °C, 5 h, pH 7
Excerpt: (§2) This purified assay system measures direct interactions in which full-length untagged Bcl-xL inhibits permeabilization by binding full-length caspase 8 cleaved Bid (cBid) and/or full-length untagged Bax, thereby preventing Bax oligomerization in membranes. […] In these assays liposome permeabilization by activated Bax releases the entrapped fluorophore/quencher pair 8-aminonaphthalene-1,3,6-trisulfonic acid (ANTS)/p-xylene-bispyridinium (DPX), resulting in a measurable increase of fluorescence.
(§3) (A–E) in vitro reconstitution assay on liposome permeabilization. […] The treated Bcl-xL was then added to reactions containing ANTS-DPX liposomes, 100 nM Bax and 20 nM of either cBid (A,B) or cBidmt1(C,D) at pH 7. Liposome permeabilization was quantified by fluorescence after 5h incubation at 37 °C where 100% release was defined as the fluorescence change due to lipid solubilization with 1% Triton X-100. […] Error bars, std. dev. n = 3. […] Cyto c extra-mito: in the supernatant, analysed by Western blot. […]
as §1
(§4) then added to reactions containing ANTS-DPX liposomes, 100nM Bax and 20nM of either c Bid (A, C) or cBid mt1(B, D) at pH 7 and liposome permeabilization was quantified by fluorescence […]

[2] = tested on: Bcl-xL inhibition of cBidmt1/Bax; experiment: In vitro reconstitution liposome permeabilization, cBidmt1/Bax with Bcl-xL; type: biochemical; details: ANTS/DPX liposomes, 100 nM Bax, 20 nM cBidmt1, pre-incubation pH 9, 45 min, 37 °C, 5 h, pH 7
Excerpt: as §2, §3, §1, §4

- BRET signals with Bcl-xL (Bcl-xL): saturable BRET signals
Substance: TCTP: Translationally Controlled Tumor Protein (TCTP/tpt1), recombinant full-length
- effect on cBidmt1-Bax induced permeabilization not containing Bcl-xL (cBidmt1+Bax): no effect
- effect on Bcl-xL inhibition of cBid/Bax-mediated liposome permeabilization [1]: enhanced Bcl-xL inhibition
- effect on Bcl-xL inhibition of cBidmt1/Bax-mediated liposome permeabilization [2]: enhanced Bcl-xL inhibition
